Here are results for 42 targets from the supplement of paper PMC12463676, “Small-molecule dissolution of stress granules by redox modulation benefits ALS models” (Nature Chemical Biology, 2025).

Compound in one experiment: O=[As]([O-])(O)O.[K+] [potassium arsenate]
Description: thermal stability z-score vs DMSO; higher = more thermally stabilized by treatment. As to conditions: HeLa; arsenate concentration 1 mM. How it is done:
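Cellular thermal proteome profiling in HeLa cells treated with 1 mM arsenate for 1 h (DMSO pretreatment), heated to ten temperatures (37-66.3 °C). Soluble protein was quantified by TMT mass spectrometry relative to DMSO controls; the thermal stability score was transformed to a z-score; mean of n = 3 experiments.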

Compound in the next experiment: NC(=O)CCCCC1CCSS1 [lipoamide]
The experiment is described as above. As to conditions: HeLa, lipoamide concentration 100 µM. Here is the method: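 Cellular thermal proteome profiling in HeLa cells. Cells were treated with 100 µM lipoamide for 1 h, with or without 1 mM arsenate for a further 1 h, then heated to ten temperatures (37-66.3 °C), and soluble protein was quantified by TMT mass spectrometry relative to 0.1% DMSO controls. The thermal stability score (sum of log2 fold changes minus the abundance score) was transformed to a z-score; mean of n = 3 experiments.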

The mark [1] stands for this setting: arsenate co-treatment: 1 mM arsenate 1 h.
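Note: each temperature applied for 3 min, abundance score taken as mean log2 fold change at the two lowest temperatures, z-score obtained by mean subtraction and division by SD.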

UniProt Q9Y282, sequence (Q9Y282 whole entry): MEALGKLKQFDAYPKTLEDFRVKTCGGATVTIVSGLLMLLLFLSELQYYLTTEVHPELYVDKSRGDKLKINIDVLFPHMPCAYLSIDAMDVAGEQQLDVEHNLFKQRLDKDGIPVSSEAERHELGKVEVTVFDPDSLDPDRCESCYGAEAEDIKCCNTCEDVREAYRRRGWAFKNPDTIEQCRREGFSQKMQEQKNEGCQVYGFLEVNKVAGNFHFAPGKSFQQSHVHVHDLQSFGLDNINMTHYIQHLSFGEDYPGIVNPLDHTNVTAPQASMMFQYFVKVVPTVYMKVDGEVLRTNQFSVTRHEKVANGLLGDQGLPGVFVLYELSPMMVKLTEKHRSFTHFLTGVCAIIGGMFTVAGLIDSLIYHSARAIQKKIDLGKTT
UniProt Q6VN20, sequence (Q6VN20 whole entry): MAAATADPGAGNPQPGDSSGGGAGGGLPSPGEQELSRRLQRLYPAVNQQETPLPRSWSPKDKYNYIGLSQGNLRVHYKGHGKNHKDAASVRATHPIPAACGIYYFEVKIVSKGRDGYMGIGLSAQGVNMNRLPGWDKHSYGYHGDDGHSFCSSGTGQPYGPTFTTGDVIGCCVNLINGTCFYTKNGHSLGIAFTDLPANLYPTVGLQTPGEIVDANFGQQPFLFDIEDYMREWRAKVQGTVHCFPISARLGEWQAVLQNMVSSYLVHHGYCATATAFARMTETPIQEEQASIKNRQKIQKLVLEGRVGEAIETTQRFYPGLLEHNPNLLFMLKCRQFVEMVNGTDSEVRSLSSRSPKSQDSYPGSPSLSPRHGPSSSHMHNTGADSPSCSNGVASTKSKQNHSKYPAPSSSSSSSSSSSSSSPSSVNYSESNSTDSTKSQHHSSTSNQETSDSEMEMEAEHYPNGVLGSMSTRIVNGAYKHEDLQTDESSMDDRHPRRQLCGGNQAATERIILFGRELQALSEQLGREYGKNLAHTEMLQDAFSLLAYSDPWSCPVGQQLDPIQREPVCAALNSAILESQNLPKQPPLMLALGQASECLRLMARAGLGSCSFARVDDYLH
UniProt Q99570, sequence (Q99570 whole entry): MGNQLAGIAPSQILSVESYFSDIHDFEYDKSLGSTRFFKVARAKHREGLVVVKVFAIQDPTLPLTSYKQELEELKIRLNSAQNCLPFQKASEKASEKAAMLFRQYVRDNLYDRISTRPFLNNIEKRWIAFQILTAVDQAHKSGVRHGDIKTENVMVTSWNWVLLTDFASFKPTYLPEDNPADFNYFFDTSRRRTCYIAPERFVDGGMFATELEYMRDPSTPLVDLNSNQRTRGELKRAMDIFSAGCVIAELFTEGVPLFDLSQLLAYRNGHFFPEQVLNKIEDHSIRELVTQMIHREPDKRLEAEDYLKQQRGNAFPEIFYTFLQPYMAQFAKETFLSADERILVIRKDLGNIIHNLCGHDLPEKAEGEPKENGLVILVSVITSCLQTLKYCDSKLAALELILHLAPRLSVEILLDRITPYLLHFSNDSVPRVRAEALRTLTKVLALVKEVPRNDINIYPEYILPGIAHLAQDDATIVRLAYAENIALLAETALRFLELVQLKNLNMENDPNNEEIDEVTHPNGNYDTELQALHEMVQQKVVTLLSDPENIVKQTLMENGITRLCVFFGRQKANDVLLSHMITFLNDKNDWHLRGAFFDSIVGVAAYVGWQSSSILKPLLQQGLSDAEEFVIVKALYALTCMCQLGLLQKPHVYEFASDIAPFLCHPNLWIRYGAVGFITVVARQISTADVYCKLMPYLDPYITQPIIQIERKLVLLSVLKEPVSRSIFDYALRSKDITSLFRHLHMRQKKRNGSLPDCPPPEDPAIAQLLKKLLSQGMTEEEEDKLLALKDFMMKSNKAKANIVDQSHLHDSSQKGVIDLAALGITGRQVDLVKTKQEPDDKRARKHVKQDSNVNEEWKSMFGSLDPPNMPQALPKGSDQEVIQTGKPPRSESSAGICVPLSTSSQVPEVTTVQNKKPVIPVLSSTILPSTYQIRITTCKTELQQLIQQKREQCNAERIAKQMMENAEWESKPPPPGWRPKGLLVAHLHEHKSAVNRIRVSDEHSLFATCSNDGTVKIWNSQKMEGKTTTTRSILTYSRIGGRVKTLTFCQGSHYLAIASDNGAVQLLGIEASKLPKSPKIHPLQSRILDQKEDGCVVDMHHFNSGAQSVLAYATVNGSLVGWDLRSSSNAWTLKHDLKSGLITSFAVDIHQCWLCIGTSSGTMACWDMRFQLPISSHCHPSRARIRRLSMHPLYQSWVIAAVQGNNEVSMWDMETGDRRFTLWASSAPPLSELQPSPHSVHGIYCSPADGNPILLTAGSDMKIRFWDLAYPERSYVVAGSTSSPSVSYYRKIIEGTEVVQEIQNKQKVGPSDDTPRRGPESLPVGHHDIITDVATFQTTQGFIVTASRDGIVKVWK
UniProt P62306, sequence (P62306 whole entry, looked up): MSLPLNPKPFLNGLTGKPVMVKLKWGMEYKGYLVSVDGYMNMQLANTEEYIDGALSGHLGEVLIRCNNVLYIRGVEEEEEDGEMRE
UniProt Q96C01, sequence (Q96C01 whole entry): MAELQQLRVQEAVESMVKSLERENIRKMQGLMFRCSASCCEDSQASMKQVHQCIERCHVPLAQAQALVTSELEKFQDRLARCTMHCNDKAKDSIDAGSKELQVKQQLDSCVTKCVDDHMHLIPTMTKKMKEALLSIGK
UniProt P11117, sequence (P11117 whole entry): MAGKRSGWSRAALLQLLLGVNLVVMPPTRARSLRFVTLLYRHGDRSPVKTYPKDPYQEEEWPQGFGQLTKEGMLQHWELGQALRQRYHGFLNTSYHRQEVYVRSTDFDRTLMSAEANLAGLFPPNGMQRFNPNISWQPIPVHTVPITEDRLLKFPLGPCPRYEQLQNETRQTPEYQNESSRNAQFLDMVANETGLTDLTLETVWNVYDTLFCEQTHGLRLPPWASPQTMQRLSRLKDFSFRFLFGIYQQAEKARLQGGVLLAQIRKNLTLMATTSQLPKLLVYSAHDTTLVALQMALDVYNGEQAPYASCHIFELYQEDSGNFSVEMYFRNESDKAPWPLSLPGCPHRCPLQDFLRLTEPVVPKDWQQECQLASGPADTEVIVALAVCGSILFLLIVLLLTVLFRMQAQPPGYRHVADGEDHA
UniProt Q9NSE4, sequence (Q9NSE4 whole entry): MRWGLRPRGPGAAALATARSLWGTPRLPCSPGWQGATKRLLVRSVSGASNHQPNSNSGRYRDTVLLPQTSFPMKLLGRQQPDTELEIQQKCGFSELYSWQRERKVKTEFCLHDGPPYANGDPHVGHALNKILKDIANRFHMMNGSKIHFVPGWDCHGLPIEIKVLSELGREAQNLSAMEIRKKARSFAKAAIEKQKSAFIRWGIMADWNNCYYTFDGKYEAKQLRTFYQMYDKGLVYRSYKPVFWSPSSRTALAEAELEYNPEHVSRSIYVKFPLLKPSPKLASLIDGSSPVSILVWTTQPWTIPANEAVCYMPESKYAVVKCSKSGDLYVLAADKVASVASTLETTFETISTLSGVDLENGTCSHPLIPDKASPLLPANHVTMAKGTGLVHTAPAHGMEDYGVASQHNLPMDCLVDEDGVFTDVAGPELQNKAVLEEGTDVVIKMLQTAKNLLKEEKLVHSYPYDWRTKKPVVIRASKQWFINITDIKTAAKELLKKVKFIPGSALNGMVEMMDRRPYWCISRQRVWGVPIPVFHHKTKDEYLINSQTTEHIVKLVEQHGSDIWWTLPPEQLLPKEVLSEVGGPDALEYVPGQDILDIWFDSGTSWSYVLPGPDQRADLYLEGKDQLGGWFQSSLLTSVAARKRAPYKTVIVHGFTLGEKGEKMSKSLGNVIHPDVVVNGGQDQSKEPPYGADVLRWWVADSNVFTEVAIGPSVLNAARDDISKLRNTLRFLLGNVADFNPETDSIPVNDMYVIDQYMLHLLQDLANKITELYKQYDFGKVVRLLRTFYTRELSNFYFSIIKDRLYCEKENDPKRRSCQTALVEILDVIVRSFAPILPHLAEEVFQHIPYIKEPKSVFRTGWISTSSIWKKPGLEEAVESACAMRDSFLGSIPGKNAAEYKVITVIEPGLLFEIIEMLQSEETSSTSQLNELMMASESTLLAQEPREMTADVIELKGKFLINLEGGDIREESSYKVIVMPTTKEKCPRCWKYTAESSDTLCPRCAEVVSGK
UniProt Q5NDL2, sequence (Q5NDL2 whole entry): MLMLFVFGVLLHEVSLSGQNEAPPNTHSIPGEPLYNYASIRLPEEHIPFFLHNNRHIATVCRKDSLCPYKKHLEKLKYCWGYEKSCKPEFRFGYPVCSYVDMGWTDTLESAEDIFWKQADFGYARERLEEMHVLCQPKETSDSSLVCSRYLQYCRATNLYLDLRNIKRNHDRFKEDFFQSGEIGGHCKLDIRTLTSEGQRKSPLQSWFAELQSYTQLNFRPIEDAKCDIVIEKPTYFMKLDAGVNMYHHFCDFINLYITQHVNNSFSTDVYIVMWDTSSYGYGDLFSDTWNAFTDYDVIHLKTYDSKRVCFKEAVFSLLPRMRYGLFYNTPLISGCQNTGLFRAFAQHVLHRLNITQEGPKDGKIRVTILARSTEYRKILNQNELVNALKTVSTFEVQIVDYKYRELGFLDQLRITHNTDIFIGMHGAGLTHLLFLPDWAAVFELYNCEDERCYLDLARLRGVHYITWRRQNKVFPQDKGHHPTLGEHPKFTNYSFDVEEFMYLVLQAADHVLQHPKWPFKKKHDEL
UniProt Q9Y4Z0, sequence (Q9Y4Z0 whole entry): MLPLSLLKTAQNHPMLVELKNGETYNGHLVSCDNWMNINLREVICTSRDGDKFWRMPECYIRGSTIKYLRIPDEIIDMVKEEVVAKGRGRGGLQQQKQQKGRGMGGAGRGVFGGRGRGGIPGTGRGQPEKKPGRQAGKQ
UniProt Q96A26, sequence (Q96A26 whole entry): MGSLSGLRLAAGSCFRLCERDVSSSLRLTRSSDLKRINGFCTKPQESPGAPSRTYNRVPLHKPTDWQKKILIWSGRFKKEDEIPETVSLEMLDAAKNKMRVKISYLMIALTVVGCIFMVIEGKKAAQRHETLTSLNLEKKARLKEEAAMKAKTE

As to MRPL51 (UniProt Q4U2R6), the thermal stability z-score was -0.0101 in the experiment with potassium arsenate, -0.114 in the experiment with lipoamide (setting [1]) and 0.334 in the experiment with lipoamide (arsenate co-treatment: none).
As to COPE (UniProt O14579), the thermal stability z-score worked out at 0.0279 with potassium arsenate, 0.165 in the experiment with lipoamide (setting [1]) and 0.681 in the experiment with lipoamide (arsenate co-treatment: none).
For PIK3R4 (UniProt Q99570) the same measures were 0.184, -0.524 and -0.155.
Regarding TMCO4 (UniProt Q5TGY1), the thermal stability z-score in the experiment with potassium arsenate was -0.0739; with lipoamide (setting [1]), -0.342; with lipoamide (arsenate co-treatment: none), -0.363.
For SPAG9 (UniProt O60271) the same measures were 0.732, 0.012 and -0.0736.
For ERGIC3 (UniProt Q9Y282) the same measures were -0.464, -1.11 and -0.784.
For FAM162A (UniProt Q96A26) the same measures were -0.244, 0.884 and 0.302.
For ZC3HAV1 (UniProt Q7Z2W4), the thermal stability z-score with potassium arsenate was 0.156; in the experiment with lipoamide (setting [1]), -0.627; with lipoamide (arsenate co-treatment: none) it was 0.183.
Take MIA3 (UniProt Q5JRA6): the thermal stability z-score is 1.39 with potassium arsenate, -3.32 with lipoamide (setting [1]) and -2.72 with lipoamide (arsenate co-treatment: none).
For MIF4GD (UniProt A9UHW6) the same measures were -0.165, 0.658 and 0.0749.
For C12ORF29 (UniProt Q8N999) the same measures were -1.5, 0.423 and -0.117.
For TRIM47 (UniProt Q96LD4) the same measures were 0.944, -0.148 and -0.0936.
Consider SHTN1 (UniProt A0MZ66), for which the results for the thermal stability z-score in the experiment with potassium arsenate, with lipoamide (setting [1]) and in the experiment with lipoamide (arsenate co-treatment: none) were 1.25, 1.1 and 0.75, respectively.
As for DOCK10 (UniProt Q96BY6), the thermal stability z-score was 0.0405 in the experiment with potassium arsenate, -0.106 with lipoamide (setting [1]) and -0.259 with lipoamide (arsenate co-treatment: none).
With ALDH18A1 (UniProt P54886), the thermal stability z-score was -1.34 in the experiment with potassium arsenate, -0.0576 with lipoamide (setting [1]) and 0.0663 with lipoamide (arsenate co-treatment: none).
For MTA1 (UniProt Q13330) the same measures were -1.05, 0.06 and 0.414.
For FAM136A (UniProt Q96C01) the same measures were -1.98, 1.12 and 0.665.
As for MTMR2 (UniProt Q13614), the thermal stability z-score was -0.555 with potassium arsenate, 0.88 in the experiment with lipoamide (setting [1]) and -0.108 with lipoamide (arsenate co-treatment: none).
For ARHGEF12 (UniProt Q9NZN5) the same measures were 0.192, -0.125 and -0.261.
As to IARS2 (UniProt Q9NSE4), the values for the thermal stability z-score with potassium arsenate, in the experiment with lipoamide (setting [1]) and with lipoamide (arsenate co-treatment: none) were -0.455, -0.232 and 0.259, respectively.
For FBXL12 (UniProt Q9NXK8) the same measures were -0.29, -0.195 and 0.0639.
Turning to FOXO3 (UniProt O43524), the thermal stability z-score is 0.19 with potassium arsenate, -0.0135 with lipoamide (setting [1]) and -0.184 with lipoamide (arsenate co-treatment: none).
Take USP8 (UniProt P40818): the figures for the thermal stability z-score in the experiment with potassium arsenate, with lipoamide (setting [1]) and with lipoamide (arsenate co-treatment: none) were 0.561, -0.401 and -0.0464, respectively.
For ACP2 (UniProt P11117) the same measures were 0.375, -0.226 and -0.57.
On to POLD2 (UniProt P49005), for which the thermal stability z-score in the experiment with potassium arsenate was -0.0023; with lipoamide (setting [1]), 0.196; with lipoamide (arsenate co-treatment: none) it was 0.117.
For INPP4A (UniProt Q96PE3) the same measures were 0.221, 0.395 and 0.319.
For BAIAP2 (UniProt Q9UQB8) the same measures were -0.138, 0.142 and 0.0757.
For NOSIP (UniProt Q9Y314) the same measures were 2.36, -1.04 and -0.0974.
As to UBXN4 (UniProt Q92575), the thermal stability z-score with potassium arsenate was -0.265; with lipoamide (setting [1]), -0.125; with lipoamide (arsenate co-treatment: none) it was -0.121.
For LSM4 (UniProt Q9Y4Z0) the same measures were 0.216, 0.426 and 0.265.
For TFCP2 (UniProt Q12800) the same measures were 0.147, 0.151 and 0.69.
As to EOGT (UniProt Q5NDL2), the thermal stability z-score with potassium arsenate is 0.0751; in the experiment with lipoamide (setting [1]), -1.18; in the experiment with lipoamide (arsenate co-treatment: none), -0.664.
On to BSG (UniProt P35613), for which the thermal stability z-score in the experiment with potassium arsenate is 0.265; with lipoamide (setting [1]), 0.714; with lipoamide (arsenate co-treatment: none), 0.573.
For TRAF2 (UniProt Q12933), the thermal stability z-score with potassium arsenate is -4.2; with lipoamide (setting [1]), -0.41; in the experiment with lipoamide (arsenate co-treatment: none), -0.458.
For SNRPF (UniProt P62306) the same measures were 0.116, 0.0402 and -0.072.
For ABCF3 (UniProt Q9NUQ8) the same measures were 0.516, -0.505 and -0.0312.
As to NPM1 (UniProt P06748), the thermal stability z-score in the experiment with potassium arsenate was -1.07; with lipoamide (setting [1]), 1.35; with lipoamide (arsenate co-treatment: none), 0.674.
RANBP10 (UniProt Q6VN20): the results for the thermal stability z-score in the experiment with potassium arsenate, in the experiment with lipoamide (setting [1]) and with lipoamide (arsenate co-treatment: none) were 0.3, 0.521 and 0.385, respectively.
CAPG (UniProt P40121): the thermal stability z-score with potassium arsenate is -0.915; with lipoamide (setting [1]) it was 0.598; in the experiment with lipoamide (arsenate co-treatment: none) it was 0.158.
For SLC7A1 (UniProt P30825) the same measures were -0.33, 0.364 and -0.194.
As to ARRB1 (UniProt P49407), the results for the thermal stability z-score with potassium arsenate, with lipoamide (setting [1]) and with lipoamide (arsenate co-treatment: none) were 0.262, 0.197 and 0.543, respectively.
Take VLDLR (UniProt P98155): the thermal stability z-score with potassium arsenate is -0.86; with lipoamide (setting [1]) it was -0.517; with lipoamide (arsenate co-treatment: none), -0.526.
